Experimental data reported in ChEMBL document CHEMBL4000146, “Synthesis, antiplasmodial activity and mechanistic studies of pyrimidine-5-carbonitrile and quinoline hybrids” (Eur J Med Chem, 2015).

Legend:
[1] = Cytotoxicity against human HeLa cells assessed as alteration of normal cell morphology by microscopic analysis; type: cell-based
Plasmodium falciparum [2] = assay: microbe, parasite or virus in culture; details: Dd2
CCRF-CEM = assay: Cytotoxicity against human CEM cells assessed as inhibition of cell proliferation by Coulter counter analysis; type: cell-based
[3] = Cytotoxicity against MDCK cells assessed as inhibition of cell viability by colorimetric formazan-based MTS assay; parameters: species or system Canis lupus familiaris; details: dog
Vaccinia virus = assay: microbe, parasite or virus in culture; details: Orthopoxvirus vaccinia, HEL
Influenza A virus [4] = assay: microbe, parasite or virus in culture; details: H1N1, MDCK
HeLa = assay: Cytotoxicity against human HeLa cells assessed as inhibition of cell proliferation by Coulter counter analysis; type: cell-based
Human betaherpesvirus 5 [5] = type: functional, cell-based; details: Human betaherpesvirus 5, Davis, HEL
Human orthopneumovirus = type: functional, cell-based; details: human respiratory syncytial virus, HeLa
[6] = test system: Mammalian orthoreovirus 1; type: functional; details: Mammalian orthoreovirus 1, Vero
Human alphaherpesvirus 1 [7] = type: functional, cell-based; details: Human alphaherpesvirus 1, KOS, HEL
[8] = Selectivity index, ratio of IC50 for human HeLa cells to IC50 for chloroquine-sensitive asexual intraerythrocytic stage of Plasmodium falciparum NF54; type: toxicity, cell-based; details: read-out: Ratio IC50
Human betaherpesvirus 5 [9] = type: functional, cell-based; details: Human betaherpesvirus 5, AD169, HEL
Influenza B virus = assay: microbe, parasite or virus in culture; details: MDCK
Coxsackievirus [10] = type: functional, cell-based; details: B4, HeLa
[11] = test system: Vesicular stomatitis virus; assay: microbe, parasite or virus in culture; details: HEL
L1210 = assay: Cytotoxicity against mouse L1210 cells assessed as inhibition of cell proliferation by Coulter counter analysis; type: cell-based
Sindbis virus = type: functional; details: Vero
Human alphaherpesvirus 3 [12] = type: functional, cell-based; details: Human alphaherpesvirus 3, strain Oka vaccine, HEL
Human respirovirus 3 = type: functional; details: Human respirovirus 3, Vero
Human alphaherpesvirus 3 [13] = type: functional, cell-based; details: Human alphaherpesvirus 3, 07-1, HEL
Plasmodium falciparum [14] = assay: Resistance index, ratio of IC50 for chloroquine-resistant asexual intraerythrocytic stage of Plasmodium falciparum Dd2 to IC50 for chloroquine-sensitive asexual intraerythrocytic stage of Plasmodium falciparum NF54; type: functional
[15] = Cytotoxicity against human HEL cells assessed as inhibition of cell viability by colorimetric formazan-based MTS assay
Punta Toro virus = type: functional; details: Vero
[16] = Cytotoxicity against african green monkey Vero cells assessed as alteration of normal cell morphology by microscopic analysis; type: cell-based; details: chlorocebus sabaeus
Coxsackievirus [17] = type: functional; details: B4, Vero
[18] = Selectivity index, ratio of IC50 for human HeLa cells to IC50 for chloroquine-resistant asexual intraerythrocytic stage of Plasmodium falciparum Dd2; type: toxicity, cell-based; details: read-out: Ratio IC50
[19] = test system: Vesicular stomatitis virus; assay: microbe, parasite or virus in culture; details: HeLa
Plasmodium falciparum [20] = assay: microbe, parasite or virus in culture; details: NF54
Human alphaherpesvirus 2 = type: functional, cell-based; details: Human alphaherpesvirus 2, G, HEL
Human alphaherpesvirus 1 [21] = type: functional, cell-based; details: Human alphaherpesvirus 1, KOS, HEL; remark: listed apart in the source
[22] = Cytotoxicity against MDCK cells assessed as alteration of normal cell morphology by microscopic analysis; type: cell-based, Canis lupus familiaris; details: dog
Influenza A virus [23] = assay: microbe, parasite or virus in culture; details: H3N2, MDCK
[24] = Cytotoxicity against human HEL cells assessed as alteration of normal cell morphology by microscopic analysis; type: cell-based
unidentified adenovirus = type: functional, cell-based; details: HEL

Compound	MCC [1] [µM]	CC50 [3] [µM]	EC50 (Vaccinia virus) [µM]	EC50 (Influenza A virus [4]) [µM]	EC50 (Human betaherpesvirus 5 [5]) [µM]	EC50 (Human orthopneumovirus) [µM]	EC50 [6] [µM]	EC50 (Human alphaherpesvirus 1 [7]) [µM]	EC50 (Human betaherpesvirus 5 [9]) [µM]	EC50 (Influenza B virus) [µM]	EC50 [11] [µM]	EC50 (Sindbis virus) [µM]	EC50 (Human alphaherpesvirus 3 [12]) [µM]	EC50 (Human alphaherpesvirus 3 [13]) [µM]	MCC [16] [µM]	EC50 (Coxsackievirus [17]) [µM]	EC50 (Human alphaherpesvirus 2) [µM]	EC50 (Human alphaherpesvirus 1 [21]) [µM]	EC50 (Influenza A virus [23]) [µM]	MCC [24] [µM]	further results
CSc1nc(NCCCCNc2ccnc3cc(Cl)ccc23)c(C#N)c(-c2ccccc2)n1	100	10.7	> 0.8	> 4	> 4	> 20	> 4	> 0.8	> 4	> 4	> 0.8	> 4	> 4	> 4	20	> 4	> 0.8	> 0.8	> 4	4 to 20	IC50 (Plasmodium falciparum [2]): 0.295 µM; IC50 (CCRF-CEM): 5.2 µM; IC50 (HeLa): 8.5 µM; selectivity ratio [8]: 78.3; EC50 (Coxsackievirus [10]): > 20 µM; IC50 (L1210): 4.4 µM; EC50 (Human respirovirus 3): > 4 µM; Ratio IC50 (Plasmodium falciparum [14]): 2.71; CC50 [15]: 8.2 µM; EC50 (Punta Toro virus): > 4 µM; selectivity ratio [18]: 28.7; EC50 [19]: > 20 µM; IC50 (Plasmodium falciparum [20]): 0.109 µM; MCC [22]: 20 µM; EC50 (unidentified adenovirus): > 4 µM
CSc1nc(NCCCNc2ccnc3cc(Cl)ccc23)c(C#N)c(-c2ccccc2)n1	100	10.3	> 4	> 4	> 4	> 20	> 20	> 4	> 4	> 4	> 4	> 20	> 4	> 4	100	> 20	> 4	> 4	> 4	20	IC50 (Plasmodium falciparum [2]): 0.319 µM; IC50 (CCRF-CEM): 4.7 µM; IC50 (HeLa): 11 µM; selectivity ratio [8]: 82.3; EC50 (Coxsackievirus [10]): > 20 µM; IC50 (L1210): 4.7 µM; EC50 (Human respirovirus 3): > 20 µM; Ratio IC50 (Plasmodium falciparum [14]): 2.38; CC50 [15]: 43.4 µM; EC50 (Punta Toro virus): > 20 µM; selectivity ratio [18]: 34.4; EC50 [19]: > 20 µM; IC50 (Plasmodium falciparum [20]): 0.134 µM; MCC [22]: 20 µM; EC50 (unidentified adenovirus): > 20 µM
C[C@H]1[C@H](OC(=O)CCC(=O)O)O[C@@H]2O[C@@]3(C)CC[C@H]4[C@H](C)CC[C@@H]1[C@@]24OO3 [ARTESUNATE]	–	–	–	–	–	–	–	–	–	–	–	–	–	–	–	–	–	–	–	–	IC50 (Plasmodium falciparum [2]): 0.0174 µM; Ratio IC50 (Plasmodium falciparum [14]): 1.38; IC50 (Plasmodium falciparum [20]): 0.0126 µM
COc1ccc(-c2nc(SC)nc(NCCCCNc3ccnc4cc(Cl)ccc34)c2C#N)cc1	20	10	> 0.8	> 4	> 4	> 4	> 4	> 0.8	> 4	> 4	> 0.8	> 4	> 4	> 4	20	> 4	> 0.8	> 0.8	> 4	4 to 20	IC50 (Plasmodium falciparum [2]): 1.53 µM; IC50 (CCRF-CEM): 2.7 µM; IC50 (HeLa): 3.4 µM; selectivity ratio [8]: 30.9; EC50 (Coxsackievirus [10]): > 4 µM; IC50 (L1210): 3.2 µM; EC50 (Human respirovirus 3): > 4 µM; Ratio IC50 (Plasmodium falciparum [14]): 13.92; CC50 [15]: 7.9 µM; EC50 (Punta Toro virus): > 4 µM; selectivity ratio [18]: 2.2; EC50 [19]: > 4 µM; IC50 (Plasmodium falciparum [20]): 0.11 µM; MCC [22]: 20 µM; EC50 (unidentified adenovirus): > 4 µM
NC(=O)c1ncn([C@@H]2O[C@H](CO)[C@@H](O)[C@H]2O)n1 [RIBAVIRIN]	> 250	100	–	7.2 to 9	–	10	> 250	–	–	4 to 4.5	–	> 250	–	–	> 250	250	–	–	6.9 to 9	–	–
COc1ccc(-c2nc(SC)nc(NCCCCNc3ccnc4cc(Cl)ccc34)c2C#N)cc1OC	100	10	> 100	> 4	> 20	> 20	> 100	> 100	> 20	> 4	> 100	> 100	> 20	> 20	> 100	> 100	> 100	> 100	> 4	≥ 100	IC50 (Plasmodium falciparum [2]): 1.28 µM; IC50 (CCRF-CEM): 16 µM; IC50 (HeLa): 20 µM; selectivity ratio [8]: 104; EC50 (Coxsackievirus [10]): > 20 µM; IC50 (L1210): 18 µM; EC50 (Human respirovirus 3): > 100 µM; Ratio IC50 (Plasmodium falciparum [14]): 6.65; CC50 [15]: 84.1 µM; EC50 (Punta Toro virus): > 100 µM; selectivity ratio [18]: 15.5; EC50 [19]: > 20 µM; IC50 (Plasmodium falciparum [20]): 0.193 µM; MCC [22]: 20 µM; EC50 (unidentified adenovirus): > 20 µM
CCN(CC)CCCC(C)Nc1ccnc2cc(Cl)ccc12 (stereo not drawn) [CHLOROQUINE]	> 100	55.6	> 20	> 20	> 4	> 100	> 100	> 20	> 20	> 20	> 20	> 100	> 4	> 4	> 100	> 100	> 20	> 20	> 20	≥ 20	IC50 (CCRF-CEM): 23 µM; IC50 (HeLa): 18 µM; EC50 (Coxsackievirus [10]): > 100 µM; IC50 (L1210): 15 µM; EC50 (Human respirovirus 3): > 100 µM; CC50 [15]: 58.5 µM; EC50 (Punta Toro virus): > 100 µM; EC50 [19]: > 100 µM; MCC [22]: 100 µM; EC50 (unidentified adenovirus): > 20 µM
Nc1nc2c(ncn2COCCO)c(=O)[nH]1 [ACYCLOVIR]	–	–	> 250	–	0.51	–	–	10	1.24	–	> 250	–	1.69	49.3	–	–	0.1	0.2	–	250 to 400	–
CSc1nc(OCCCNc2ccnc3cc(Cl)ccc23)c(C#N)c(-c2ccccc2)n1	4	2.1	> 0.8	> 0.8	> 0.8	> 0.8	> 0.8	> 0.8	> 0.8	> 0.8	> 0.8	> 0.8	> 0.8	> 0.8	4	> 0.8	> 0.8	> 0.8	> 0.8	4	IC50 (Plasmodium falciparum [2]): 0.208 µM; IC50 (CCRF-CEM): 3.3 µM; IC50 (HeLa): 3.4 µM; selectivity ratio [8]: 38.3; EC50 (Coxsackievirus [10]): > 0.8 µM; IC50 (L1210): 3.9 µM; EC50 (Human respirovirus 3): > 0.8 µM; Ratio IC50 (Plasmodium falciparum [14]): 2.34; CC50 [15]: 1.7 µM; EC50 (Punta Toro virus): > 0.8 µM; selectivity ratio [18]: 16.3; EC50 [19]: > 0.8 µM; IC50 (Plasmodium falciparum [20]): 0.0888 µM; MCC [22]: 4 µM; EC50 (unidentified adenovirus): > 0.8 µM
CSc1nc(NCCCCNc2ccnc3cc(Cl)ccc23)c(C#N)c(-c2ccc([N+](=O)[O-])cc2)n1	4	2	> 0.8	> 0.8	> 0.8	> 0.8	> 0.8	> 0.8	> 0.8	> 0.8	> 0.8	> 0.8	> 0.8	> 0.8	4	> 0.8	> 0.8	> 0.8	> 0.8	4	IC50 (Plasmodium falciparum [2]): 0.532 µM; IC50 (CCRF-CEM): 0.76 µM; IC50 (HeLa): 0.89 µM; selectivity ratio [8]: 20.3; EC50 (Coxsackievirus [10]): > 0.8 µM; IC50 (L1210): 0.96 µM; EC50 (Human respirovirus 3): > 0.8 µM; Ratio IC50 (Plasmodium falciparum [14]): 12.13; CC50 [15]: 1.7 µM; EC50 (Punta Toro virus): > 0.8 µM; selectivity ratio [18]: 1.6; EC50 [19]: > 0.8 µM; IC50 (Plasmodium falciparum [20]): 0.0438 µM; MCC [22]: 4 µM; EC50 (unidentified adenovirus): > 0.8 µM
CSc1nc(NCCCCNc2ccnc3cc(Cl)ccc23)c(C#N)c(-c2ccc(C)cc2)n1	100	9.9	> 4	> 4	> 4	> 20	> 4	> 4	> 4	> 4	> 4	> 4	> 4	> 4	20	> 4	> 4	> 4	> 4	20	IC50 (Plasmodium falciparum [2]): 0.543 µM; IC50 (CCRF-CEM): 4.9 µM; IC50 (HeLa): 5 µM; selectivity ratio [8]: 41.9; EC50 (Coxsackievirus [10]): > 20 µM; IC50 (L1210): 4.3 µM; EC50 (Human respirovirus 3): > 4 µM; Ratio IC50 (Plasmodium falciparum [14]): 4.54; CC50 [15]: 8.2 µM; EC50 (Punta Toro virus): > 4 µM; selectivity ratio [18]: 9.2; EC50 [19]: > 20 µM; IC50 (Plasmodium falciparum [20]): 0.119 µM; MCC [22]: 20 µM; EC50 (unidentified adenovirus): > 4 µM
